Reference: patent US8187876B2, “Expansion of stem/progenitor cells by inhibition of enzymatic reactions catalyzed by the Sir2 family of enzymes” (Gamida Cell Ltd., priority 2004, dated 2012)

What was measured:
Assay type in all cases: cell-based, human
CD34+ cells [1] = assay: Ex vivo expansion of CD34+ cell cultures, three weeks, CD34+ cells re-selected and enumerated; conditions: 5 μM nicotine amide; cytokines SCF, TPO, FLt3, IL-6, IL-3; only cytokine treated cultures 35×10^4
Description: Sample collection and purification—Cells were obtained from umbilical cord blood (CB) after a normal full-term delivery (informed consent was given). Samples were collected and processed within 12 hours postpartum. Blood was mixed with 3% Gelatin (Sigma, St. Louis, Mo.) and let sedimented for 30 minutes to remove most red blood cells (RBC). The leukocyte-rich fraction was harvested and layered on Ficoll-Hypaque gradient (1.077 g/mL; Sigma), and centrifuged at 400 g for 30 minutes. […]
Purification of CDD133+ and CD34+ cells—To purify CDD133+ or CD34^+ cells, the mononuclear cell fraction was subjected to two cycles of immuno-magnetic separation using the “MiniMACS or Clinimax CD34 progenitor cell isolation kit” (Miltenyi Biotec, Aubun, Calif.) following the manufacturer's recommendations. The purity of the CD34^+ population obtained ranged from 95% to 98% as evaluated by flow cytometry (see below). […]
At weekly intervals, cell cultures were semi-depopulated and supplemented with fresh medium, serum and cytokines. At various time points, cells were harvested, counted following staining with trypan blue, and cell morphology was determined on cytospin (Shandon, UK)-prepared smears stained with May-Grunwald/Giemsa solutions. […]

CD34+ cells [2] = assay: FACS immunophenotyping of cultured/re-selected CD34+ cells for stem/early progenitor cells
Description: Immunophenotyping—For immuno-phenotyping, cells were harvested, washed with phosphate buffered saline (PBS), containing 1% BSA and 0.1% sodium azide, and stained by incubation (at 4° C. for 60 min) with phycoerythrin (PE)-conjugated anti CD38 (Immunoquality Products, The Netherlands), flourescein isothiocyanate (FITC)-conjugated anti CD34 (Miltenyi Biotec) both at 5 μl per 50 μl cell suspension. The cells were then washed with the same buffer and analyzed, using FACS-calibur flow cytometer (Becton-Dickinson, Immunofluorometry systems, Mountain View, Calif.). Cells were passed at a rate of about 1000 cells/second, using saline as the sheath fluid. A 488 nm argon laser beam served as the light source for excitation. Emission of ten thousand cells was measured using logarithmic amplification and calculated using the cellQuest software. Background noise was determined using isotype control stained cells. Arithmetic Mean Fluorescence Channel (MFC) of the negative and positive populations and the stained cells to noise (S/N) ratio were calculated.
The highly purified, re-selected CD34+ cell fraction from a three week culture was FACS analyzed for stem/early progenitor cells: CD34+CD38− (FIG. 3), CD34+Lin−(CD3, 4, 19, 38, 33, 14 and 15 minus, FIG. 4) as well as for the percentages of CD38-HLA-DR minus cells (FIG. 5). […] For example, at 5 uM nicotinamide the percentages of CD34+Lin− cells were 4.11 whereas in control cultures only 0.02%, the percentages of CD34+CD38− cells were 34.6 in nicotinamide cultures and only 0.67 in control.
The CD34+CD38− cells are shown in the upper left part of the plot. FIG. 6b, the cells were stained with CD34(PE) and Lin(38, 33, 4, 3, 15, 14, 19, 61) (FITC). The CD34+Lin− cells are shown in the upper left part of the plot. FIG. 6c, the cells were stained for 34PE and HLA-DR and CD38 FITC. The CD34+/CD38− HLA-DR− cells are shown in the upper left part of the plot.

CD34+ cells [3] = assay: Two phase culture system: long-term expansion of CD34+ cell cultures (3-week treatment phase, then cytokines only); conditions: 200 mM Splitomicin for first 3 weeks
Description: Two phase culture system—Purified CD34+ cells were cultured in culture bags (American Fluoroseal Co. Gaithersburg, Md., USA) at a concentration of 1×10^4 cells/ml in MEMα/10% FCS containing the following human recombinant cytokines: Thrombopoietin (TPO), interleukin-6 (IL-6), FLT-3 ligand and stem cell factor (SCF), each at a final concentration of 50 ng/ml (Perpo Tech, Inc., Rocky Hill, N.J., USA), with or without Nicotinamide or Sirtinol or Splitomicin and incubated at 37° C. in a humidified atmosphere of 5% CO2 in air. Until week 3, the cultures were topped weekly with the same volume of fresh medium, Nicotinamide or Sirtinol or Splitomicin and growth factors. From week three and up to the termination of the experiments the cultures were weekly demi-depopulated and supplemented with cytokines only. Cells were counted following staining with trypan blue. At various time points, harvested cells were used to assay the content of colony forming units in culture (CFUc), enumeration of CD34+ cells following re-selection and immunophenotype analysis. Cell morphology was determined on cytospin (Shandon). […] On week 5 cells were enumerated, numbers of CFUc were determined and CD34+ cells were re-isolated from 10 ml cultures, counted and accumulative numbers per culture were calculated.

CD34+ cells [4] = assay: Assay for Colony Forming Units (CFUc) in semi-solid medium; conditions: 200 mM Splitomicin for first 3 weeks; week 5; colonies scored after 14 days
Description: Assay for Colony Forming Units (CFU)—Cells were cloned in semi-solid, methylcellulose-containing medium supplemented with 2 IU/mL erythropoietin (Eprex, Cilag AG Int., Switzerland), stem cell factor and IL-3, both at 20 ng/mL, G-CSF and GM-CSF, both at 10 ng/mL (all from Perpo Tech). Cultures were incubated for 14 days at 37° C. in humidified atmosphere of 5% CO2 in air.
Cell culturing—Cell culturing was effected was described above. Specifically, cultures were initiated with a total of 1.2×10^5 CD34+ cells in cytokine-supplemented medium, with or without (control) […] Splitomicin. From week 3 and on all cultures were supplemented with cytokines only. On week 5 cells were enumerated, numbers of CFUc were determined and CD34+ cells were re-isolated from 10 ml cultures, counted and accumulative numbers per culture were calculated.

SMILES	CD34+ cells re-selected after three week expansion (CD34+ cells [1])	percentages of CD34+CD38− cells in re-selected CD34+ fraction (CD34+ cells [2]; 5 uM nicotinamide, three week culture, control 0.67) [%]	percentages of CD34+Lin− cells in re-selected CD34+ fraction (CD34+ cells [2]; 5 uM nicotinamide, three week culture, control cultures 0.02%) [%]	increase in CD34+ cells (CD34+ cells [3]; CD34+ cells re-isolated on week 5)	total cell expansion vs cytokine-only control (CD34+ cells [3]; counted on week 5)	colony formation (CFU analysis), self-renewal potential (CD34+ cells [4])	CD34+/CD38− population shift in FACS dot plot (CD34+ cells [2]; 75 mM splitomicin)
NC(=O)c1cccnc1 [Nicotinamide, nicotinamide]	180×10^4	34.6	4.11	–	–	–	–
O=C1CCc2c(ccc3ccccc23)O1 [Splitomicin]	–	–	–	about 30%	more than 2 fold	increase in colony formation	remarkable up-left shift
